{"source": "patent US8809274B2", "about": "“Adhesive hemostatic agent based on porcine atelocollagen and method for production thereof” (Dalim Biotech Co., Ltd., priority 2008, dated 2014)", "tested_on": "blood", "assay": "Effect of tranexamic acid on blood coagulation (Example 5)", "assay_type": "cell-based", "conditions": "Experimental Condition F: 0.25 mL of 0.02/0.05/0.1 wt % tranexamic acid in distilled water alone; 0.5 mL blood", "experimental": "While tranexamic acid, a hemostatic agent with antifibrinolytic activity, was used under the above-described conditions, the time taken to induce blood clots was monitored.\n—Experimental Condition A • 1. 0.5 mL of blood was placed on each Petri-dish. • 2. A mixture of 0.25 mL of the solution of Example 1 and 0.25 mL of the 1 wt % calcium chloride solution containing 0.71 wt % of DOPA and 0.02 wt % of tranexamic acid was added to the Petri-dish of 1. • 3. A mixture of 0.25 mL of the solution of Example 1 and 0.25 mL of the 1 wt % calcium chloride solution containing 0.71 wt % of DOPA and 0.05 wt % of tranexamic acid was added to the Petri-dish of 1. • 4. A mixture of 0.25 mL of the solution of Example 1 and 0.25 mL of the 1 wt % calcium chloride solution containing 0.71 wt % of DOPA and 0.1 wt % of tranexamic acid was added to the Petri-dish of 1. • 5. Reactions in the Petri-dishes were observed.\n—Experimental Condition B • 1. 0.5 mL of blood was placed on each Petri-dish. • 2. A mixture of 0.25 mL of the solution of Example 1 and 0.25 mL of the 1.5 wt % calcium chloride solution containing 0.67 wt % of DOPA and 0.02 wt % of tranexamic acid was added to the Petri-dish of 1. • 3. A mixture of 0.25 mL of the solution of Example 1 and 0.25 mL of the 1.5 wt % calcium chloride solution containing 0.67 wt % of DOPA and 0.05 wt % of tranexamic acid was added to the Petri-dish of 1. • 4. […]", "data": [{"smiles": "NC[C@H]1CC[C@H](C(=O)O)CC1", "note": "[tranexamic acid]", "values": [{"measurement": "blood coagulation rate", "value": "at lower rates than when in the presence of the esterified atelocollagen"}]}]}
